Where a name gives a salt, the structure may show the parent alone. Non-standard residues stand in square brackets, D forms with d. Residues, ends and D or L forms follow the SMILES beside them. Phe(4-NO2) = N[C@@H](Cc1ccc([N+](=O)[O-])cc1)C(=O)O
Tests used:
rat = experiment: Antidiarrhoeal activity in the rat (castor oil); assay type: in vivo; details: for ANTIDARRHOEA ED50 p.o. / ANTIDARRHOEA ED50 s.c.: castor oil 15 minutes after peptide
Method: (B) Antidiarrhoeal activity in the rat. In this procedure rats were starved for 24 hours, the peptide then administered either subcutaneously or orally followed after 15 minutes by 1 ml. castor oil per rat given orally.
(§1) From the data obtained the respective ED50 figures were calculated (i.e. the dose required to elicit the appropriate effect in 50% of the animals). N.T.: not tested.

mice [1] = experiment: Analgesia in mice in the writhing test; assay type: in vivo; details: mouse, p.o.
Description: As a further example the compounds are effective in reducing acetic acid-induced writhing in mice when tested by a modification of the method of Henderson et. al., J. Pharm. Exp. Therap. 125 (1959), 237; the compounds being administered orally and this reduction in writhing is abolished by naloxone.
(D) Analgesia in mice in the writhing test (modification of the method of Henderson et. al. (J. Pharm. Exp. Therap., 125,(1959),237) the peptide being administered orally.
as §1

mice [2] = experiment: Analgesia in mice in the hot plate test; assay type: in vivo; details: i.c.v.
Method: (A) Analgesia in mice in the hot plate test (modification of the method of Eddy, N. B. et al., J. Pharm. Exp. Therap. (1953) 107, 385, the peptide being administered by intracerebroventricular injection).
as §1

guinea-pigs = experiment: Anti-tussive testing, citric acid aerosol in guinea-pigs; assay type: in vivo; details: guinea-pig; for ANTITUSSIVE ED50 p.o.: 20% citric acid aerosol 30 minutes after compound
Method: J. Pharmacol., 39, (1970) 225.
(C) For anti-tussive testing, guinea-pigs are subjected to an aerosol containing 20% citric acid, 30 minutes after administration of compound (orally or subcutaneously). The number of coughs during a five minute exposure are counted and meaned for six animals per treatment. The method is that described by Boura, A. L. A., Green, A. F. and Saunders, I. A. Br. J. Pharmac., May 1970, Vol. 39, No. 1, page 225.
as §1

[3] = tested on: laboratory animals including rats and mice; experiment: Induction of anaesthesia / abolition of the righting reflex in laboratory animals; details: laboratory animals such as mice, up to lethal doses

Compound | ANTIDARRHOEA ED50 p.o. (rat) | ANTIDARRHOEA ED50 s.c. (rat) | ANALGESIA: WRITHING ED50 (mice [1]) | ANALGESIA: MOUSE HOT PLATE ED50 (mice [2]) | ANTITUSSIVE ED50 p.o. (guinea-pigs) | ANTITUSSIVE (ED50 column): activity at 10 p.o. (guinea-pigs; at 10 mg/kg p.o.) | ANTIDARRHOEA p.o. (ED50 column): activity at 10 (rat; at 10 mg/kg p.o.) | Abolition of the righting reflex [3]
CSCC[C@@H](NC(=O)[C@@H](N)Cc1ccc(O)cc1)C(=O)NCC(=O)N[C@@H](Cc1ccc([N+](=O)[O-])cc1)C(=O)N1CCC[C@H]1C(N)=O [Example 1, H.Tyr.D-Met.Gly.Phe(4NO2).Pro.NH2] (H-Y[dM]G[Phe(4-NO2)]P-NH2) | 2 mg/kg | 0.05 mg/kg | 35 mg/kg | 0.007 μg/mouse | 0.7 mg/kg | – | – | –
CSCC[C@@H](NC(=O)[C@@H](N)Cc1ccc(O)cc1)C(=O)NCC(=O)N[C@@H](Cc1ccccc1)C(=O)N1CCC[C@@H]1C(=O)O [Example 3, H.Tyr.D-Met.Gly.Phe.D-Pro.OH HCl] (H-Y[dM]GF[dP]-OH) | 7 mg/kg | 2 mg/kg | – | 0.005 μg/mouse | – | None | – | –
CSCC[C@@H](NC(=O)[C@@H](N)Cc1ccc(O)cc1)C(=O)NCC(=O)N[C@@H](Cc1ccc([N+](=O)[O-])cc1)C(=O)N1CCC[C@H]1C(=O)O [Example 4, H.Tyr.D-Met.Gly.Phe(4NO2).Pro.OH HCl] (H-Y[dM]G[Phe(4-NO2)]P-OH) | – | 0.2 mg/kg | – | 0.07 μg/mouse | – | – | None | –
CN1CC[C@]23c4c5ccc(O)c4O[C@H]2[C@@H](O)C=C[C@H]3[C@H]1C5 [morphine] | – | – | – | – | – | – | – | does not abolish the righting reflex
H.Tyr.D-Met(O2).Gly.Phe(4NO2).Pro.NH2 [Example 7] | 0.3 mg/kg | 0.05 mg/kg | – | 0.00008 μg/mouse | 3 mg/kg | – | – | –
H.Tyr.D-Met.Gly.Phe(4Cl).Pro.NH2 [Example 9] | 10 mg/kg | 0.2 mg/kg | – | 0.005 μg/mouse | – | – | – | –
Tyr.D-Met.Gly.Phe(4NO2).homoPro.NH2 [Example 21] | 2 mg/kg | 0.03 mg/kg | – | 0.003 μg/mouse | – | – | – | –

— patent US4343795A, “Biologically active amides” (priority 1977, dated 1982)
